Square brackets hold non-standard residues; d marks the D form. Peptide text beside a SMILES is read from it. Hyp = O=C(O)[C@@H]1C[C@@H](O)CN1
Key:
HSL1 ectodomain [1] = biological target: T1, HSL1 ectodomain (Arabidopsis thaliana, UniProt Q9SGP2); test: ITC, peptide titrated into isolated HSL1 ectodomain; settings: peptide (syringe) into HSL1 ectodomain (cell), 25 °C, 20 mM sodium citrate pH 5.0, 150 mM NaCl, N fitted to 1, mean ± SD of at least two independent experiments, n.d = no binding detected
T1 construct: HSL1 (residues 17-618, AT1G28440); azurocidin or Drosophila BIP signal peptide (secretion signal) (N); made in house; host or cells: Trichoplusia ni Tnao38 insect cells (baculovirus)
T1 sequence (Q9SGP2 17-618): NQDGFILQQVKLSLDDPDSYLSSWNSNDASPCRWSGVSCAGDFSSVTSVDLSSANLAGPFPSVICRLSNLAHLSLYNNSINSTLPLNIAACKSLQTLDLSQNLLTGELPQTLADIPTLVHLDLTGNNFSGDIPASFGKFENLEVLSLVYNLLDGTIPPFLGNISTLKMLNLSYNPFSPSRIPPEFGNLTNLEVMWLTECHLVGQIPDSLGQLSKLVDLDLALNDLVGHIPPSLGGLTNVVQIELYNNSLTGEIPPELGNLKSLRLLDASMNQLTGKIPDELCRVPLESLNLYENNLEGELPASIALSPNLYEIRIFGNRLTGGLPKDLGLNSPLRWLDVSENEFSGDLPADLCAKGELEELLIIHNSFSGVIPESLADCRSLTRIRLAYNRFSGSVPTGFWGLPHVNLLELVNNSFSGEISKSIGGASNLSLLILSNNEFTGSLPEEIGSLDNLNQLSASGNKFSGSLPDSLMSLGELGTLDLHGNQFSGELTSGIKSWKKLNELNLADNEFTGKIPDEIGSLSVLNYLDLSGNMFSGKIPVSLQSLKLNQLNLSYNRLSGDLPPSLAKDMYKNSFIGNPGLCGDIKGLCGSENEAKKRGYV
Source text: All genes used for protein expression in Trichoplusia ni Tnao38 cells[46] were codon optimized and cloned into a modified pFastBac vector (Geneva Biotech) providing an azurocidin[47] or Drosophila BIP signal peptide, a TEV (tobacco etch virus protease) cleavage site and a Strep-9xHis tandem affinity tag at their carboxy terminus. The genes used are coding for the Arabidopsis ectodomains of HSL1 (residues 17-618, AT1G28440), HAE (residues 20-620, AT4G28490) SERK1 (residues 24–213, AT1G71830), and BAM1 (residues 20–637, AT5G65700). To perform Grating-coupled interferometry (GCI) experiments, HSL1 was fused to a non-cleavable Avi-tag[49],[50]. […] After every expression round, secretion of our proteins was detected using an anti-His-HRP conjugated antibody from Roche (Ref:11965085001) in a 1:2000 dilution. […] Proteins were analyzed for purity and structural integrity by SDS-PAGE.
Experiments were performed at 25 °C using a MicroCal PEAQ-ITC (Malvern Instruments) with a 200 µL standard cell and a 40 μL titration syringe. […] Molar protein concentrations for HSL1, BAM1, and SERK1 were calculated using their molar extinction coefficient and a molecular weight of 74,896 and 27,551 Da, respectively as previously determined. […] Experiments were done in duplicates or triplicates, otherwise specified, and data were analyzed using the MicroCal PEAQ-ITC Analysis Software provided by the manufacturer. […]

BAM1 LRR ectodomain = biological target: T2, BAM1 LRR ectodomain (Arabidopsis thaliana, UniProt O49545); test: ITC, peptide titrated into BAM1 ectodomain; assay type: binding
T2 construct: BAM1 (residues 20–637, AT5G65700); azurocidin or Drosophila BIP signal peptide (secretion signal) (N); made in house; host or cells: Trichoplusia ni Tnao38 insect cells (baculovirus)
T2 sequence (O49545 20-637): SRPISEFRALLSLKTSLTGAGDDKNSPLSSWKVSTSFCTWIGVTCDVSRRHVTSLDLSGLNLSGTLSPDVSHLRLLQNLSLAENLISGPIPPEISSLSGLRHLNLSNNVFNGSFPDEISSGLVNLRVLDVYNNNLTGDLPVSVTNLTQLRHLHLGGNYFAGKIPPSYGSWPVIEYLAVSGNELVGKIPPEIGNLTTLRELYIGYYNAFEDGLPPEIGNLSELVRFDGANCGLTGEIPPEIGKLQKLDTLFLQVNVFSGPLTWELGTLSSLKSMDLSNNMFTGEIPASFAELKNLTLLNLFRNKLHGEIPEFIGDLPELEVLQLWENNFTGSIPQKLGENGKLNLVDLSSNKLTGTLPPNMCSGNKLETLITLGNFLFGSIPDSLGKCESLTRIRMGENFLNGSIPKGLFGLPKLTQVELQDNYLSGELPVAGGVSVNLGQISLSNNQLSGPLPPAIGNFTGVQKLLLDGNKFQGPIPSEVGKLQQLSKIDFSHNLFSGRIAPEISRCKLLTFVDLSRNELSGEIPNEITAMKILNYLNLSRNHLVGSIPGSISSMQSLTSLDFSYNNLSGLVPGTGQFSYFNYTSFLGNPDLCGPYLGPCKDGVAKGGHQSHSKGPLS
Source text: All genes used for protein expression in Trichoplusia ni Tnao38 cells[46] were codon optimized and cloned into a modified pFastBac vector (Geneva Biotech) providing an azurocidin[47] or Drosophila BIP signal peptide, a TEV (tobacco etch virus protease) cleavage site and a Strep-9xHis tandem affinity tag at their carboxy terminus. The genes used are coding for the Arabidopsis ectodomains of HSL1 (residues 17-618, AT1G28440), HAE (residues 20-620, AT4G28490) SERK1 (residues 24–213, AT1G71830), and BAM1 (residues 20–637, AT5G65700). To perform Grating-coupled interferometry (GCI) experiments, HSL1 was fused to a non-cleavable Avi-tag[49],[50]. Baculovirus generation was carried out in DH10 cells and virus amplification was done in Spodoptera frugiperda Sf9 cells. For protein expression, Trichoplusia ni Tnao38 cells were infected with HAE, HSL1, BAM1 and SERK1 virus with a multiplicity of infection (MOI) of 3. The cells were grown 1 day at 28 °C and two days at 22 °C at 110 rpm. After every expression round, secretion of our proteins was detected using an anti-His-HRP conjugated antibody from Roche (Ref:11965085001) in a 1:2000 dilution. […] Next, affinity tags were removed by incubating the purified proteins with recombinant His-tagged TEV protease, in a 1:50 ratio. The cleaved tag and the protease were separated from the ectodomains by a second Ni^2+ affinity step. Proteins were further purified by size-exclusion chromatography on a Superdex 200 Increase 10/300 GL column (GE Healthcare) equilibrated in 20 mM citric acid pH 5.0, 150 mM NaCl. Peak fractions containing the single proteins or complexes were concentrated using Amicon Ultra concentrators (Millipore, MWCO 10,000 for SERK1 and 30,000 for HAE, HSL1, and BAM1) and used for crystallization or biochemical experiments. Proteins were analyzed for purity and structural integrity by SDS-PAGE.
Experiments were performed at 25 °C using a MicroCal PEAQ-ITC (Malvern Instruments) with a 200 µL standard cell and a 40 μL titration syringe. HSL1, BAM1, and SERK1 proteins were gel-filtrated into the ITC buffer (20 mM sodium citrate pH 5.0, 150 mM NaCl). Molar protein concentrations for HSL1, BAM1, and SERK1 were calculated using their molar extinction coefficient and a molecular weight of 74,896 and 27,551 Da, respectively as previously determined. A typical experiment consisted of injecting 2 μL of a range between 75 and 600 μM solution of ligand into 10 to 30 μM HAE, HSL1, or BAM1 solution in the cell at 150 s intervals and 500 rpm stirring speed. The SERK1 vs HAE/HSL1-peptide experiments were performed by titrating 100 µM SERK1 in the cell, using the same injection pattern. ITC data were corrected for the heat of dilution by subtracting the mixing enthalpies for titrant solution injections into protein-free ITC buffer. Experiments were done in duplicates or triplicates, otherwise specified, and data were analyzed using the MicroCal PEAQ-ITC Analysis Software provided by the manufacturer. […] The N values were fitted to 1 in the analysis.

HSL1 ectodomain [2] = biological target: T1, HSL1 ectodomain; test: GCI binding kinetics, peptide vs immobilised HSL1; settings: HSL1 on surface, peptide as analyte, 25 °C, pH 5, one-to-one binding model, read-out: ka association rate constant, peptide vs HSL1 (GCI)
Method: 25 μM of HSL1 were biotinylated with the biotin ligase BirA[60] (2 μM) for 1 h at 30 °C, in a volume of 200 μl. The buffer used in the reaction was: 25 mM Tris pH 8, 150 mM NaCl, 5 mM MgCl2, 2 mM 2-Mercaptoethanol, 0.15 mM Biotin, 2 mM ATP. Biotinylated proteins were purified by size-exclusion chromatography in 20 mM citric acid pH5, 150 mM NaCl and subsequently used in GCI experiments.
GCI experiments were performed with the Creoptix WAVE system (Creoptix AG, Switzerland) using 4PCP WAVE chips (thin quasiplanar polycarboxylate surface; Creoptix, Switzerland). Chips were first conditioned with borate buffer (100 mM sodium borate pH 9.0, 1 M NaCl; Xantec, Germany). Chips were activated with 1:1 mix of 400 mM N-(3-dimethylaminopropyl)-N′-ethylcarbodiimide hydrochloride and 100 mM N-hydroxysuccinimide (Xantec, Germany). Streptavidin (50 µg/ml; Sigma, Germany) in 10 mM sodium acetate pH 5.0 (Sigma, Germany) was immobilized on the chip surface until saturation was reached, followed by passivation of the surface with BSA (50 µg/ml; Sigma, Germany) in 10 mM sodium acetate pH5.0, and a final quenching step with 1 M ethanolamine pH 8.0 (Xantec, Germany). Then, biotinylated HSL1 (ligand) (80–100 μg/ml) was captured on the streptavidin surface until the desired density was reached. Normal kinetic analysis were performed to measure the binding of IDL peptides (analyte) to HSL1. Experiments were performed at 25 °C with a 1:2 dilution series from a maximum concentration of 5–50 μM peptide, in 20 mM citrate pH 5, 250 mM NaCl, 0.005% Tween-20 v/v. To analyze the interaction kinetics of the co-receptor SERK1, 2 µM of the protein was used as a higher dilution with running buffer containing 5 µM of the IDL peptides being tested. Blank injections were used for double referencing and a dimethylsulfoxide (DMSO) calibration curve for bulk correction. Analysis and correction of the obtained data were performed using the Creoptix WAVE control software (correction applied: X and Y offset; DMSO calibration; double referencing). One-to-one binding model was used for both experiments.

SMILES	Kd (dissociation constant), peptide vs HSL1 (HSL1 ectodomain [1])	Kd (BAM1 LRR ectodomain)	kon (HSL1 ectodomain [2])	Kd (dissociation constant), peptide vs BAM1 (BAM1 LRR ectodomain; ITC, peptide into BAM1 ectodomain (cell), 25 °C, 20 mM sodium citrate pH 5.0, 150 mM NaCl, N fitted to 1, mean ± SD of at least two independent experiments, n.d = no binding detected)
CC(C)C[C@H](NC(=O)[C@@H](N)CCCNC(=N)N)C(=O)N[C@H](C(=O)N1C[C@H](O)C[C@H]1C(=O)N[C@@H](CO)C(=O)NCC(=O)N1C[C@H](O)C[C@H]1C(=O)N[C@@H](CC(N)=O)C(=O)N1CCC[C@H]1C(=O)N[C@@H](CC(C)C)C(=O)N[C@@H](Cc1c[nH]cn1)C(=O)N[C@@H](CC(N)=O)C(=O)O)C(C)C [CLE9] (H-RLV[Hyp]SG[Hyp]NPLHN-OH)	did not detect binding	94 ± 56 nM		
CC(C)[C@H](NC(=O)[C@@H]1CCCN1)C(=O)N1CCC[C@H]1C(=O)N[C@@H](C)C(=O)N[C@@H](CO)C(=O)N[C@@H](C)C(=O)N1C[C@H](O)C[C@H]1C(=O)N[C@@H](CO)C(=O)N[C@@H](CCCNC(=N)N)C(=O)N[C@@H](CCCCN)C(=O)N[C@@H](Cc1c[nH]cn1)C(=O)N[C@@H](CC(N)=O)C(=O)O [IDL4, IDA-LIKE] (H-PVPASA[Hyp]SRKHN-OH)			460000 M⁻¹ s⁻¹	
CC[C@H](C)[C@H](NC(=O)[C@@H]1CCCN1)C(=O)N1CCC[C@H]1C(=O)N1CCC[C@H]1C(=O)N[C@@H](CO)C(=O)N[C@@H](C)C(=O)N1C[C@H](O)C[C@H]1C(=O)N[C@@H](CO)C(=O)N[C@@H](CCCCN)C(=O)N[C@@H](CCCNC(=N)N)C(=O)N[C@@H](Cc1c[nH]cn1)C(=O)N[C@@H](CC(N)=O)C(=O)O [IDA, INFLORESCENCE DEFICIENT IN ABSCISSION] (H-PIPPSA[Hyp]SKRHN-OH)			225000 M⁻¹ s⁻¹	did not detect interaction
CC(C)[C@H](NC(=O)[C@@H]1CCCN1)C(=O)N1CCC[C@H]1C(=O)N[C@H](C(=O)N[C@@H](CO)C(=O)NCC(=O)N1C[C@H](O)C[C@H]1C(=O)N[C@@H](CO)C(=O)N[C@@H](CCCNC(=N)N)C(=O)N[C@@H](CCCCN)C(=O)N[C@@H](Cc1c[nH]cn1)C(=O)N[C@@H](CC(N)=O)C(=O)O)[C@@H](C)O [IDL3, IDA-LIKE] (H-PVPTSG[Hyp]SRKHN-OH)			700000 M⁻¹ s⁻¹	

From article PMC8847575, “HSL1 and BAM1/2 impact epidermal cell development by sensing distinct signaling peptides” (Nature Communications, 2022)
